Test systems include IGROV1 ovarian; HOP-92 NSCLC; U251 CNS; A549 NSCLC; MOLT-4 leukemia; M14 melanoma; NCI-H522 lung; EKVX NSCLC; SR leukemia; CCRF-CEM leukemia.
Common to all, as to test: DTP human tumour cell line panel, 48 h

Several values for one entry are separate records, joined by “and”; a condition that tells them apart may be missing. Equal values may be shown once.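 Grown in 96-well plates, cells were treated for 48 hours with each compound at five concentrations. Insufficient inhibition: endpoint recorded as highest concentration tested. GI50 is the concentration that inhibits growth by half. TGI marks complete inhibition of growth.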 A value given as a limit tells only on which side of the number the result lay.

Take `COc1cc(/C=C/C(=O)c2c(C)n([O-])c3ccc(Cl)cc3[n+]2=O)cc(OC)c1OC`: the GI50 (usually the concentration that inhibits growth by half) was 35.4 µM in the assay on IGROV1 ovarian; 0.0718 µM with HOP-92 NSCLC; 34.4 µM with U251 CNS; 59.8 µM in the assay on A549 NSCLC; more than 100 µM in the assay on MOLT-4 leukemia; more than 100 µM with M14 melanoma. Besides, the GI50 is more than 100 µM in the assay with NCI-H522 lung, 25.2 µM in the assay on EKVX NSCLC, 8.4 µM with SR leukemia and more than 100 µM with CCRF-CEM leukemia. The total growth inhibition concentration (TGI) (in general, the concentration at which net growth stops) in the assay with IGROV1 ovarian was more than 100 µM; in the assay on HOP-92 NSCLC it was 3.53 µM; in the assay on U251 CNS, more than 100 µM; in the assay on A549 NSCLC it was more than 100 µM; with MOLT-4 leukemia, more than 100 µM; in the assay on M14 melanoma it was more than 100 µM. The TGI in the assay on NCI-H522 lung, in the assay on EKVX NSCLC, in the assay with SR leukemia and in the assay on CCRF-CEM leukemia was more than 100 µM each time.

As for `Clc1ccc2c(c1)-c1ccccc1C1=NCCN12`, the GI50 in the assay on IGROV1 ovarian was 2.14 µM; in the assay on HOP-92 NSCLC, 1.19 µM; in the assay with U251 CNS, 1.98 µM; in the assay with A549 NSCLC it was 1.53 µM; in the assay on MOLT-4 leukemia, 1.01 µM; in the assay on M14 melanoma it was 1.56 µM. For the same compound, the GI50 with NCI-H522 lung was 1.52 µM; in the assay with EKVX NSCLC it was 2.25 µM; with SR leukemia, 1.55 µM; in the assay on CCRF-CEM leukemia, 1.7 µM. Moreover, the TGI with IGROV1 ovarian is 5.36 µM; with HOP-92 NSCLC it was 3.29 µM; in the assay on U251 CNS it was 7.14 µM; in the assay on A549 NSCLC, 3.77 µM; in the assay on MOLT-4 leukemia it was 3.11 µM; with M14 melanoma it was 3.07 µM. In addition, the TGI in the assay on NCI-H522 lung amounted to 3.48 µM; in the assay with EKVX NSCLC it was 9.09 µM; with SR leukemia, 4.13 µM; in the assay on CCRF-CEM leukemia, 4.08 µM.

`COC(=O)[C@@H](C)C[C@H](Cc1ccccc1)NC(=O)c1csc([C@@H](C[C@H](C(C)C)N(C)C(=O)C2(NC(=O)[C@H]3CCCCN3C)CC2)OC(C)=O)n1`: the GI50 in the assay with IGROV1 ovarian is 0.00147 µM and 0.00333 µM; with HOP-92 NSCLC, 0.00434 µM and 0.00333 µM; in the assay on U251 CNS, 0.00913 µM and 0.00333 µM; with MOLT-4 leukemia it was 0.00965 µM and 0.00333 µM; in the assay on M14 melanoma, 0.00504 µM and 0.00333 µM; in the assay on NCI-H522 lung it was 0.000537 µM. Also, the GI50 in the assay on SR leukemia was 0.000486 µM and 0.00333 µM; with CCRF-CEM leukemia, 0.00531 µM and 0.00333 µM. For the same compound, the total growth inhibition concentration (TGI) with IGROV1 ovarian was more than 33.3 µM; in the assay on HOP-92 NSCLC, 5.29 µM; in the assay on U251 CNS it was more than 33.3 µM; with A549 NSCLC it was more than 33.3 µM; with MOLT-4 leukemia, more than 33.3 µM; in the assay with M14 melanoma, 0.468 µM. The TGI with NCI-H522 lung is 0.00491 µM; in the assay with EKVX NSCLC, more than 33.3 µM; in the assay with SR leukemia, more than 33.3 µM; in the assay on CCRF-CEM leukemia it was more than 33.3 µM.

As for `S=C(Nc1ccccc1)N(Cc1ccccc1)c1ccccc1`, the TGI in the assay on IGROV1 ovarian, with HOP-92 NSCLC, in the assay on U251 CNS, with A549 NSCLC, in the assay on MOLT-4 leukemia and with M14 melanoma was more than 100 µM each time. The concentration for total growth inhibition (TGI) in the assay on NCI-H522 lung is 62.3 µM; in the assay with EKVX NSCLC, 58.4 µM; in the assay with SR leukemia it was more than 100 µM; in the assay on CCRF-CEM leukemia, more than 100 µM.

Turning to `NCCCCN(Cc1nc2ccccc2[nH]1)[C@H]1CCCc2cccnc21`, the GI50 in the assay with IGROV1 ovarian is 12.6 µM; in the assay on HOP-92 NSCLC, 2.12 µM; with U251 CNS, 11.3 µM; with A549 NSCLC, 15.2 µM; in the assay with MOLT-4 leukemia it was 17.5 µM; in the assay on M14 melanoma, 13.9 µM. In addition, the GI50 in the assay with NCI-H522 lung was 19.8 µM; in the assay on EKVX NSCLC, 15.2 µM; with SR leukemia, 4.52 µM; with CCRF-CEM leukemia, 7.06 µM. The TGI is more than 100 µM in the assay on IGROV1 ovarian; 27.1 µM in the assay on HOP-92 NSCLC; more than 67.8 µM with U251 CNS; 44.4 µM in the assay on A549 NSCLC; 69.4 µM in the assay on MOLT-4 leukemia; 30.2 µM in the assay with M14 melanoma. Also, the TGI in the assay on NCI-H522 lung is more than 64.8 µM; with EKVX NSCLC, more than 100 µM; in the assay with SR leukemia it was 24.8 µM; in the assay with CCRF-CEM leukemia, 56.3 µM.

Values taken from PubChem BioAssay (NCI).
